The source of these data is patent publication US20240407363A1 (priority 2021, published 2024).

Each structure is given as a SMILES string. Values after ≈ are worked out from the molar mass of the structure shown.

This assay has as its system X. perforans GEV-485. The assay is described as follows: In vitro MIC and MBC determination in nutrient broth / on NA plates. The format is cell-based. The settings on record: three trials. The procedure:
X. perforans strain GEV-485, a copper-resistant strain, was used in this study to evaluate the antibacterial activity of Hx. Working cultures of GEV-485 were retrieved from −80° C. storage vials containing bacterial suspensions in 30% glycerol (v/v). Bacterial cells were taken from the storage, streaked on nutrient agar (NA; Difco™ Sparks, MD) plates and incubated for 48 h at 28° C. and single colonies were picked and streaked on NA plates to ensure bacterial purity for further cultures. NA amended with copper (II) sulfate pentahydrate (CuSO4·5H2O) (Fisher Scientific-Hampton, NH) at 20 ppm, was used as copper tolerance selective agent. To prepare the bacterial inoculum, a single bacterial colony was streaked on NA and incubated for 24 h at 28° C. From those plates, loops of bacterial cells were collected and resuspended in SDW amended with 0.01 M MgSO4. The bacterial concentration was adjusted to ˜5.0×10^8 colony-forming units (CFU)/mL based on an optical density (OD) of 0.3 at 600 nm. The in vitro studies were conducted to determine the minimum inhibitory concentration (MIC), minimum bactericidal concentration (MBC), and the antibacterial activity at different time points.
To determine MIC of Hx against X. perforans GEV-485, individual 96-well plates containing 100 μL of nutrient broth (NB) with varied copper and Hx concentrations were inoculated with 100 μL of the GEV-485 suspension at the concentration of 1.0×10^8 CFU/mL. The final chemical concentrations on the wells were 16, 32, 64, 128, 256, 512, 1024, 2048, 4096 and 8192 mg/L. Three wells with 100 µL of NB and 100 μL of the bacterial suspension were the controls. Solutions in all wells were thoroughly mixed by pipetting. The plate was, then, covered with a lid and incubated under stationary conditions at 28° C. for 24 h. The value of MIC for Hx and copper was determined as the minimum concentration (mg/L), at which the bacterial growth was inhibited (the solution was clear), among all tested concentrations of each chemical. After MIC was determined, an aliquot of 20 μL of the solution from the wells that gave a clear solution was plated on NA. […] The MBC was determined as the minimum concentration, at which >99.9% of the initial bacterial populations were killed and no visible growth of the bacterium was observed on the NA plates among all tested concentrations of antimicrobial agents. The experiment was repeated two more times, with three replications for each treatment.

Turning to `CCCCCC(=O)O` [Hexanoic acid, hexanoic acid], the MIC (28° C. for 24 h, copper-resistant strain, read-out: MIC) amounted to 512 µg/mL (≈ 4.41 mM). Also, the minimal bactericidal concentration (MBC) (>99.9% of initial bacterial populations killed, no visible growth on NA, read-out: MBC) turned out to be 1020 µg/mL (≈ 8.82 mM).

What is called MIC is the lowest concentration found to suppress growth. One may read the MBC as the lowest tested concentration that kills the bacteria rather than only halting them.
